Experimental data: paper PMC6937156, “The nature of the ligand’s side chain interacting with the S1'-subsite of metallocarboxypeptidase T (from Thermoactinomyces vulgaris) determines the geometry of the tetrahedral transition complex” (PLoS ONE, 2019)

target: T1, carboxypeptidase T (CPT) (Thermoactinomyces vulgaris, UniProt P29068); experiment: inhibition of tripeptide hydrolysis, integral kinetic curves at […] nm; assay type: biochemical
T1 construct: mature enzyme; one molecule in asymmetric unit

Row | Ki [µM] | SMILES
1 | 3090 | NS(=O)(=O)N[C@@H](CCC(=O)O)C(=O)O [SGlu, N-(aminosulfonyl)-L-glutamic acid]
2 | 35.1 | NS(=O)(=O)N[C@@H](Cc1ccccc1)C(=O)O [SPhe, N-sulfamoyl-L-phenylalanine]
3 | 340 | N=C(N)NCCC[C@H](NS(N)(=O)=O)C(=O)O [SArg, N-sulfamoyl-L-arginine]
4 | 8.94 | CC(C)C[C@H](NS(N)(=O)=O)C(=O)O [SLeu, N-(aminosulfonyl)-L-leucine]
